Reference: ChEMBL document CHEMBL5518246, “Discovery of Small Molecule Interleukin 17A Inhibitors with Novel Binding Mode and Stoichiometry: Optimization of DNA-Encoded Chemical Library Hits to In Vivo Active Compounds” (J Med Chem, 2024)
Values after ≈ are worked out from the molar mass of the structure shown.

What was measured:
[1] = Metabolic stability in human liver microsomes assessed as unbound intrinsic clearance at 0.5 uM measured after 4 hrs; assay type: ADME, Microsome
[2] = Thermodynamic solubility of the compound at pH 7.4 measured after 48 hrs by UHPLC analysis; assay type: physicochemical; conditions: buffer, read-out: Therm_solubility

| Compound | CL free [1] | solubility thermodynamic at 48 h [2] |
| --- | --- | --- |
| C[C@H](NC(=O)[C@]1(NC(=O)c2cc(Cl)c(Cl)[nH]2)CO[C@H](c2ccccc2)C1)c1ncc2c(n1)CN([C@H]1CCN(C)C1)C2 | < 45 mL/min/kg | > 1000 µM |
| C[C@H](NC(=O)[C@]1(NC(=O)c2cc(Cl)c(Cl)[nH]2)CO[C@H](c2ccccc2)C1)c1ncc2c(n1)CN(CC(F)F)C2 | 55 mL/min/kg | 7.2 µM (≈ 4.17 µg/mL) |
| CN1C(=O)[C@@H](NC(=O)[C@@H](NC(=O)c2cc(Cl)c(Cl)[nH]2)C2CCCCC2)COc2ccccc21 | 6000 mL/min/kg |  |
| C[C@H](NC(=O)[C@]1(NC(=O)c2cc(Cl)c(Cl)[nH]2)CO[C@H](c2ccccc2)C1)c1ncc2c(n1)CN(CC(F)(F)F)C2 | 200 mL/min/kg | 5.3 µM (≈ 3.17 µg/mL) |
| O=C(N[C@@]1(C(=O)NCc2cn3cccnc3n2)CO[C@H](c2ccccc2)C1)c1cc(Cl)c(Cl)[nH]1 | 63.3 mL/min/kg |  |
| C[C@H](NC(=O)[C@]1(NC(=O)c2cc(Cl)c(Cl)[nH]2)CO[C@H](c2ccccc2)C1)c1cc2c(nn1)COC2 | 102 mL/min/kg | 31 µM (≈ 16 µg/mL) |
| COCc1cnc([C@H](C)NC(=O)[C@]2(NC(=O)c3cc(Cl)c(Cl)[nH]3)CO[C@H](c3ccccc3)C2)nc1 | 78.3 mL/min/kg | 0.82 µM (≈ 0.425 µg/mL) |
| O=C(N[C@@]1(C(=O)NCc2cn3cccnc3n2)CO[C@@H](c2ccccc2)C1)c1cc(Cl)c(Cl)[nH]1 | 115 mL/min/kg |  |
| C[C@H](NC(=O)[C@]1(NC(=O)c2cc(Cl)c(Cl)[nH]2)CO[C@H](c2ccccc2)C1)c1ncc2c(n1)CN(CCC(F)(F)F)C2 | 183 mL/min/kg |  |
| O=C(CN1C(=O)[C@@H](NC(=O)[C@@H](NC(=O)c2cc(Cl)c(Cl)[nH]2)C2CCCCC2)CSc2ccccc21)Nc1ccccc1 | 35000 mL/min/kg |  |
| C[C@H](NC(=O)[C@]1(NC(=O)c2cc(Cl)c(Cl)[nH]2)CO[C@H](c2ccccc2)C1)c1ncc2c(n1)CNC2 | 217 mL/min/kg | 719 µM (≈ 371 µg/mL) |
| C[C@H](NC(=O)[C@]1(NC(=O)c2cc(Cl)c(Cl)[nH]2)CO[C@H](c2ccccc2)C1)c1ncc2c(n1)CN(C)C2 | 88.3 mL/min/kg | 190 µM (≈ 101 µg/mL) |
| O=C(N[C@]1(C(=O)NCc2cn3cccnc3n2)CO[C@@H](c2ccccc2)C1)c1cc(Cl)c(Cl)[nH]1 | < 35 mL/min/kg |  |
| CNC(=O)[C@H](CCc1ccccc1)NC(=O)c1cc(C)c[nH]1 | 35 mL/min/kg |  |
| COC[C@H](NC(=O)[C@H](CCc1ccccc1)NC(=O)c1cc(Cl)c(Cl)[nH]1)c1cn2cccnc2n1 | 107 mL/min/kg |  |
| CNC(=O)[C@@H]1C[C@@H](c2ccccc2)CN1C(=O)c1cc(Cl)c(Cl)[nH]1 | 85 mL/min/kg |  |
| C[C@H](NC(=O)[C@]1(NC(=O)c2cc(Cl)c(Cl)[nH]2)CO[C@H](c2ccccc2)C1)c1ncc2c(n1)CN(C1COC1)C2 | < 28.3 mL/min/kg | 280 µM (≈ 160 µg/mL) |
| C[C@H](NC(=O)[C@]1(NC(=O)c2cc(Cl)c(Cl)[nH]2)CO[C@H](c2ccccc2)C1)c1ncc2c(n1)CN([C@@H]1CCN(C)C1)C2 | 400 mL/min/kg | > 1000 µM |
| O=C(N[C@H](C(=O)NCc1cn2cccnc2n1)[C@@H]1C[C@H]1c1ccccc1)c1cc(Cl)c(Cl)[nH]1 | 217 mL/min/kg |  |

| Compound | CL free [1] | solubility thermodynamic at 48 h [2] |
| --- | --- | --- |
| C[C@H](NC(=O)[C@]1(NC(=O)c2cc(Cl)c(Cl)[nH]2)CO[C@H](c2cccc(C#N)c2)C1)c1ncc2c(n1)CN(C1CCN(C)CC1)C2 | < 38.3 mL/min/kg | 654 µM (≈ 417 µg/mL) |
| O=C(N[C@H](C(=O)NCc1cn2cccnc2n1)[C@H]1C[C@@H]1c1ccccc1)c1cc(Cl)c(Cl)[nH]1 | 533 mL/min/kg |  |
| CNC(=O)[C@@H](NC(=O)c1cc(Cl)c(Cl)[nH]1)C1Cc2ccccc2C1 | 145 mL/min/kg |  |
| C[C@H](NC(=O)[C@]1(NC(=O)c2cc(Cl)c(Cl)[nH]2)CO[C@H](c2ccccc2)C1)c1cnc2c(n1)COC2 | 183 mL/min/kg | 60 µM (≈ 31 µg/mL) |
| COCc1cccc([C@@H]2C[C@](NC(=O)c3cc(Cl)c(Cl)[nH]3)(C(=O)N[C@@H](C)c3ncc4c(n3)CN(C3CCN(C)CC3)C4)CO2)c1 | < 35 mL/min/kg | 660 µM (≈ 433 µg/mL) |
| C[C@H](NC(=O)[C@]1(NC(=O)c2cc(Cl)c(Cl)[nH]2)CO[C@H](c2ccccc2)C1)c1ncc2c(n1)CN(CC#N)C2 | 120 mL/min/kg | 61 µM (≈ 33.8 µg/mL) |
| O=C(N[C@H](C(=O)NCc1cn2cccnc2n1)[C@H]1CCc2ccccc2C1)c1cc(Cl)c(Cl)[nH]1 | 667 mL/min/kg |  |
| CNC(=O)[C@@H](NC(=O)c1cc(Cl)c(Cl)[nH]1)C1CCCCC1 | 90 mL/min/kg |  |
| C[C@H](NC(=O)[C@]1(NC(=O)c2cc(Cl)c(Cl)[nH]2)CO[C@H](c2ccccc2)C1)c1ncc2c(n1)CN(C1CN(C)C1)C2 | < 26.7 mL/min/kg | 600 µM (≈ 351 µg/mL) |
| C[C@H](NC(=O)[C@]1(NC(=O)c2cc(Cl)c(Cl)[nH]2)CO[C@H](c2ccccc2)C1)c1ncc(CO)cn1 | < 28.3 mL/min/kg | 67 µM (≈ 33.8 µg/mL) |
| O=C(N[C@H](C(=O)NCc1cn2cccnc2n1)C1Cc2ccccc2C1)c1cc(Cl)c(Cl)[nH]1 | 120 mL/min/kg |  |
| CC(C)(NC(=O)[C@H](CCc1ccccc1)NC(=O)c1cc(Cl)c(Cl)[nH]1)c1cn2cccnc2n1 | 350 mL/min/kg |  |
| C[C@H](NC(=O)[C@]1(NC(=O)c2cc(Cl)c(Cl)[nH]2)CO[C@H](c2ccccc2)C1)c1ncc2c(n1)CCC2 | 333 mL/min/kg | 3.8 µM (≈ 1.95 µg/mL) |
| O=C(N[C@]1(C(=O)NCc2cn3cccnc3n2)CO[C@H](c2ccccc2)C1)c1cc(Cl)c(Cl)[nH]1 | 43.3 mL/min/kg |  |
| CNC(=O)[C@H](CC(C)(C)C)NC(=O)c1cc(Cl)c(Cl)[nH]1 | < 33 mL/min/kg |  |
| O=C(NC1(C(=O)NCc2cn3cccnc3n2)Cc2ccccc2C1)c1cc(Cl)c(Cl)[nH]1 | 115 mL/min/kg |  |
| O=C(N[C@H](C(=O)NCc1cn2cccnc2n1)[C@@H]1CCc2ccccc2C1)c1cc(Cl)c(Cl)[nH]1 | 1050 mL/min/kg |  |
| COc1cccc([C@@H]2C[C@](NC(=O)c3cc(Cl)c(Cl)[nH]3)(C(=O)N[C@@H](C)c3ncc4c(n3)CN(C3CCN(C)CC3)C4)CO2)c1 | < 41.7 mL/min/kg | 532 µM (≈ 342 µg/mL) |

Continued, values first:

| CL free [1] | solubility thermodynamic at 48 h [2] | Compound |
| --- | --- | --- |
| 500 mL/min/kg |  | C[C@H](NC(=O)[C@H](CCc1ccccc1)NC(=O)c1cc(Cl)c(Cl)[nH]1)c1nc2cnccc2s1 |
| 233 mL/min/kg |  | O=C(N[C@@H](CCc1ccccc1)C(=O)NCc1cn2cccnc2n1)c1cc(Cl)c(Cl)[nH]1 |
| 200 mL/min/kg |  | C[C@H](NC(=O)[C@H](CCc1ccccc1)NC(=O)c1cc(Cl)c(Cl)[nH]1)c1cn2cccnc2n1 |
| 70 mL/min/kg |  | CC(=O)N1CCO[C@@H](CNC(=O)[C@H](CCc2ccccc2)NC(=O)c2cc(Cl)c(Cl)[nH]2)C1 |
| 160 mL/min/kg |  | O=C(N[C@@H](CCc1ccccc1)C(=O)NCCC1(O)CCOCC1)c1cc(Cl)c(Cl)[nH]1 |
| 135 mL/min/kg |  | O=C(N[C@@H](CCc1ccccc1)C(=O)NCC1(CO)CCOCC1)c1cc(Cl)c(Cl)[nH]1 |
| 333 mL/min/kg |  | C[C@H](NC(=O)[C@H](CCc1ccccc1)NC(=O)c1cc(Cl)c(Cl)[nH]1)c1cn2ccoc2n1 |
| 98.3 mL/min/kg |  | O=C(N[C@@H](CCc1ccccc1)C(=O)NC[C@H]1COCCO1)c1cc(Cl)c(Cl)[nH]1 |
| < 40 mL/min/kg |  | CNC(=O)[C@H](CCc1ccccc1)NC(=O)c1cc(Cl)c(Cl)[nH]1 |
| 60 mL/min/kg |  | O=C(N[C@@H](CCc1ccccc1)C(=O)NC[C@@H]1COCCO1)c1cc(Cl)c(Cl)[nH]1 |
| 217 mL/min/kg |  | CN1CCN(CCNC(=O)[C@H](CCc2ccccc2)NC(=O)c2cc(Cl)c(Cl)[nH]2)CC1 |
| 58.3 mL/min/kg |  | O=C(N[C@@H](CCc1ccccc1)C(=O)NC1(c2cn3cccnc3n2)CC1)c1cc(Cl)c(Cl)[nH]1 |
| 113 mL/min/kg |  | O=C(N[C@@H](CCc1ccccc1)C(=O)NCC1(O)CCOCC1)c1cc(Cl)c(Cl)[nH]1 |
| 125 mL/min/kg |  | CC[C@H](NC(=O)[C@H](CCc1ccccc1)NC(=O)c1cc(Cl)c(Cl)[nH]1)c1cn2cccnc2n1 |
| 938 mL/min/kg |  | O=C(N[C@@H](CCc1ccccc1)C(=O)N[C@@H](CO)c1cn2cccnc2n1)c1cc(Cl)c(Cl)[nH]1 |
| 56.7 mL/min/kg |  | CC(=O)N1CCO[C@H](CNC(=O)[C@H](CCc2ccccc2)NC(=O)c2cc(Cl)c(Cl)[nH]2)C1 |
| 1680 mL/min/kg |  | C[C@H](NC(=O)[C@H](CCc1ccccc1)NC(=O)c1cc(Cl)c(Cl)[nH]1)c1cn2ccsc2n1 |
| 200 mL/min/kg |  | C[C@H](NC(=O)[C@H](CCc1ccccc1)NC(=O)c1cc(Cl)c(Cl)[nH]1)c1cn2nccnc2n1 |
| 267 mL/min/kg |  | C[C@@H](NC(=O)[C@H](CCc1ccccc1)NC(=O)c1cc(Cl)c(Cl)[nH]1)c1cn2cccnc2n1 |
| 217 mL/min/kg |  | O=C(NC(CCc1ccccc1)C(=O)NCc1cn2cccnc2n1)c1cc(Cl)c(Cl)[nH]1 (racemic) |
| 1030 mL/min/kg |  | O=C(NC(CCc1ccccc1)C(=O)NCc1cnc(N2CCOCC2)nc1)c1cc(Cl)c(Cl)[nH]1 (racemic) |
| 817 mL/min/kg |  | O=C(NC(CCc1ccccc1)C(=O)NCc1cccnc1N1CCOCC1)c1cc(Cl)c(Cl)[nH]1 (racemic) |
| 1120 mL/min/kg |  | O=C(NC(CCc1ccccc1)C(=O)NCc1cn2ccsc2n1)c1cc(Cl)c(Cl)[nH]1 (racemic) |
